According to BindingDB's records for doi:10.1021/jm00143a003 (1982):

Target: Spermine synthase (Rattus norvegicus)
Assay: Inhibitory activity against spermine synthase

IC50: 80 µM
Structure (SMILES): C[S+](C[C@H]1O[C@H](n2cnc3c(N)ncnc32)[C@H](O)[C@@H]1O)C(CCN)CCCCCN (stereo partly specified)
